# Assay results from patent publication US20110297235A1, “USE OF TRIARYLAMINE DERIVATIVES AS HOLE-CONDUCTING MATERIALS IN ORGANIC SOLAR CELLS AND ORGANIC SOLAR CELLS CONTAINING SAID TRIARYLAMINE DERIVATIVES” (BASF SE, priority 2009, published 2011).
# Tests used:
# [1] = in vivo; cited from earlier work
# [2] = Glass transition temperature Tg and morphology M by means of DSC; type: physicochemical
# [3] = Decomposition temperature Td by means of TGA; type: physicochemical
# physchem = conditions: organic solvent or mixture
glass transition temperature Tg [2],decomposition temperature Td [3],solubility (physchem; solubility L in chlorobenzene),solubility (physchem; solubility in Ethyl acetate),solubility (physchem; solubility in Tetrahydrofuran),solubility (physchem; solubility in Toluene),solubility (physchem; solubility in Anisole),SMILES,LD50 [1]
,,,,,,,Clc1ccccc1 [chlorobenzene],2900 mg/kg
138 °C,420 °C,400 to 550 mg/mL,90 to 110 mg/mL,440 to 580 mg/mL,500 to 1000 mg/mL,,CCN(CC)c1ccc(N(c2ccc(-c3ccc(N(c4ccc(OC)cc4)c4ccc(OC)cc4)cc3)cc2)c2ccc(-c3ccc(N(c4ccc(-c5ccc(N(c6ccc(OC)cc6)c6ccc(OC)cc6)cc5)cc4)c4ccc(N(CC)CC)cc4)cc3)cc2)cc1 [ID521],
123 °C,450 °C,650 to 1300 mg/mL,,300 to 600 mg/mL,> 270 mg/mL,,COc1ccc(N(c2ccc(OC)cc2)c2ccc(-c3ccc(N(c4ccc(OC)cc4)c4ccc(C5(c6ccc(N(c7ccc(OC)cc7)c7ccc(-c8ccc(N(c9ccc(OC)cc9)c9ccc(OC)cc9)cc8)cc7)cc6)CCCCC5)cc4)cc3)cc2)cc1 [ID452],
156 °C,440 °C,450 to 700 mg/mL,40 mg/mL,340 to 680 mg/mL,170 to 230 mg/mL,,COc1ccc(N(c2ccc(-c3ccc(N(c4ccc(OC)cc4)c4ccc(-c5ccc(N(c6ccc(OC)cc6)c6ccc7c(c6)C(C)(C)c6ccccc6-7)cc5)cc4)cc3)cc2)c2ccc(-c3ccc(N(c4ccc(OC)cc4)c4ccc5c(c4)C(C)(C)c4ccccc4-5)cc3)cc2)cc1 [ID453],
47 °C,440 °C,400 to 800 mg/mL,,,,,CCCCCCC1(CCCCCC)c2cc(N(c3ccc(OCC(CC)CCCC)cc3)c3ccc(-c4ccc(N(c5ccc(OC)cc5)c5ccc(OC)cc5)cc4)cc3)ccc2-c2ccc(N(c3ccc(OCC(CC)CCCC)cc3)c3ccc(-c4ccc(N(c5ccc(OC)cc5)c5ccc(OC)cc5)cc4)cc3)cc21 (centres unmarked) [ID569],
138 °C,450 °C,> 900 mg/mL,60 to 100 mg/mL,> 800 mg/mL,> 500 mg/mL,> 400 mg/mL,COc1ccc(N(c2ccc(C)cc2)c2ccc(-c3ccc(N(c4ccc(OC)cc4)c4ccc(-c5ccc(N(c6ccc(OC)cc6)c6ccc(-c7ccc(N(c8ccc(C)cc8)c8ccc(OC)cc8)cc7)cc6)cc5)cc4)cc3)cc2)cc1 [ID572],
134 °C,440 °C,> 1300 mg/mL,700 to 1400 mg/mL,1000 to 2000 mg/mL,500 to 1000 mg/mL,500 to 1000 mg/mL,COc1ccc(N(c2ccc(OC)cc2)c2ccc(-c3ccc(N(c4ccc(OC)cc4)c4ccc(-c5ccc(N(c6ccc(OC)cc6)c6ccc(-c7ccc(N(c8ccc(OC)cc8)c8ccc(OC)cc8)cc7)cc6)c(C)c5)cc4C)cc3)cc2)cc1 [ID631],
65 °C,360 °C,> 650 mg/mL,,,,,CCCCC(CC)COc1ccc(N(c2ccc(-c3ccc(N(c4ccc(OC)cc4)c4ccc(OC)cc4)cc3)cc2)c2ccc(-c3ccc(N(c4ccc(OCC(CC)CCCC)cc4)c4ccc(-c5ccc(N(c6ccc(OC)cc6)c6ccc(OC)cc6)cc5)cc4)cc3)cc2)cc1 (centres unmarked) [ID568],
141 °C,450 °C,1250 to 2500 mg/mL,240 to 480 mg/mL,400 to 550 mg/mL,900 to 1800 mg/mL,,COc1ccc(N(c2ccc(OC)cc2)c2ccc(-c3ccc(N(c4ccc(OC)cc4)c4ccc5c(c4)Cc4cc(N(c6ccc(OC)cc6)c6ccc(-c7ccc(N(c8ccc(OC)cc8)c8ccc(OC)cc8)cc7)cc6)ccc4-5)cc3)cc2)cc1 [ID523],
